Measurements reported in patent US7652006B2, “Substituted 1(2H)-phthalazinones and pharmaceutical compositions thereof” (Euro-Celtique S.A., priority 1998, dated 2010).
Counter-ions that a name gives are not always drawn. Like-named read-outs stand apart in the source and are kept apart here.

Experiments:
[1] = tested on: AMPA receptors; assay: electrophysiological assay, AMPA receptors expressed in oocyte; type: cell-based, rat
Excerpt: The compounds of the present invention may be assessed by electrophysiological assays in Xenopus oocytes expressing rat whole brain poly(A)^+ RNA (see Keana et. al. J. Med. Chem. 38: 4367-4379 (1995)) or in cultured rat cortical neurons (see Woodward et. al. Mol. Pharmacol. 47: 568-581 (1995)) for AMPA receptor activity. Compounds which are useful for treating or preventing the adverse consequences of stroke, hypoglycemia, neurodegenerative disorders, anxiety, epilepsy or psychosis, or which induce analgesia, will inhibit the currents across the membranes of the oocyte expressing AMPA receptors. However, if the compound potentiates currents across the oocyte membrane, then the compound is expected to be useful in enhancing cognition or treating schizophrenia or neurodegenerative disease such as Parkinson's Disease.
The potency of antagonism or potentiation for these compounds were determined by electrophysiological assay. Potencies of selective compounds described above in inhibiting or modulating AMPA receptors expressed in oocyte and their anticonvulsant activity against maximal electroshock induced convulsion are shown in Table 1.

[2] = inhibiting or modulating AMPA receptors expressed in oocyte; read-out: AMPA IC50

| Compound | IC50 [1, 2] | other results |
| --- | --- | --- |
| ICc1nc(-c2ccc3c(c2)OCO3)c2cc3c(cc2n1)OCO3 [2-Iodomethyl-6,7-methylenedioxy-4-(3,4-methylenedioxyphenyl)quinazoline] | 7 µM | – |
| CCOC(=O)CCn1nc(-c2ccc3c(c2)OCO3)c2cc3c(cc2c1=O)OCO3 [2-[2(ethoxycarbonyl)ethyl]-4-(3,4-methylenedioxyphenyl)-6,7-methylenedioxy-1(2H)-phthalazinone] | 3 µM | – |
| ClCCc1nc(-c2ccc3c(c2)OCO3)c2cc3c(cc2n1)OCO3 [2-(2-Chloroethyl)-6,7-methylenedioxy-4-(3,4-methylenedioxyphenyl)quinazoline] | – | IC50 ([1]; read-out: AMPA IC50; inhibiting or modulating AMPA receptors expressed in oocyte): 3 µM |
| NCCn1c(=O)nc(-c2ccc3c(c2)OCO3)c2cc3c(cc21)OCO3 [1-(2-aminoethyl)-6,7-methylenedioxy-4-(3,4-methylenedioxyphenyl)quinazoline-2(1H)-one] | 1 µM | – |
| O=c1nc(-c2ccc3c(c2)OCO3)c2cc3c(cc2n1CCn1ccnc1)OCO3 [1-(Imidazol-1-yl)ethyl-6,7-methylenedioxy-4-(3,4-methylenedioxyphenyl)quinazoline-2-one] | 5 µM | – |
| O=c1nc(-c2ccc3c(c2)OCO3)c2cc3c(cc2n1CCN1CCOCC1)OCO3 [4-(4,4-methylenedioxyphenyl)-6,7-methylenedioxy-1-(2-morpholinylethyl)-quinazolin-2(1H)-one] | 4 µM | – |
| c1cn(CCOc2nc(-c3ccc4c(c3)OCO4)c3cc4c(cc3n2)OCO4)cn1 [2-[2-(Imidazol-1-yl)ethoxy]-6,7-methylenedioxy-4-(3,4-methylenedioxyphenyl)quinazoline] | 10 µM | – |
| CCn1c(=O)nc(-c2cc3c(cc2N)OCO3)c2cc3c(cc21)OCO3 [1-Ethyl-6,7-methylenedioxy-4-(2-amino-4,5-methylenedioxyphenyl)quinazolin-2(1H)-one] | 7 µM | – |
| COc1nc(-c2ccc3c(c2)OCO3)c2cc3c(cc2n1)OCO3 | – | melting point: 216 to 223 °C |
| CC(C)(O)c1nc(-c2ccc3c(c2)OCO3)c2cc3c(cc2n1)OCO3 [6,7-methylenedioxy-4-(3,4-methylenedioxyphenyl)-2-(1-hydroxy-1-methylethyl)quinazoline] | 6 µM | – |
| CCOc1nc(-c2ccc3c(c2)OCO3)c2cc3c(cc2n1)OCO3 [2-Ethoxy-6,7-methylenedioxy-4-(3,4-methylenedioxyphenyl)-quinazoline] | 6 µM | – |
| CN(C)CCc1nc(-c2ccc3c(c2)OCO3)c2cc3c(cc2n1)OCO3 [2-(2-Dimethylaminoethyl)-4-(3,4-methylenedioxyphenyl)-6,7-methylenedioxyquinazoline] | 8 µM | – |
| O=c1c2cc3c(cc2c(-c2ccc4c(c2)OCO4)nn1CCn1ccnc1)OCO3 [2-[2-(1-Imidazolyl)ethyl]-4-(3,4-methylenedioxyphenyl)-6,7-methylenedioxy-1(2H)-phthalazinone] | 6 µM | – |
| O=c1nc(-c2ccc3c(c2)OCO3)c2cc3c(cc2n1CC1CC1)OCO3 [1-cyclopropylmethyl-6,7-methylenedioxy-4-(3,4-methylenedioxyphenyl) quinazolin-2(1H)-one] | 6 µM | – |
| O=c1nc(-c2ccc3c(c2)OCO3)c2cc3c(cc2n1CCN1CCCC1)OCO3 [1-(2-Pyrrolidinylethyl)-6,7-methylenedioxy-4(3,4-methylenedioxyphenyl)quinazolin-2(1H)-one] | 1.6 µM | – |
| 1-[2-(N-methylpyrrolidin-1-yl)ethyl]-6,7-methylenedioxy-4-(3,4-methylenedioxyphenyl)quinazoline-2-one | 4 µM | – |
| O=c1nc(-c2ccc3c(c2)OCO3)c2cc3c(cc2n1CCN1CCCCC1)OCO3 [1-(Piperidin-1-yl)ethyl-6,7-methylenedioxy-4-(3,4-methylenedioxyphenyl)quinazoline-2-one] | 4 µM | – |
| CCn1nc(-c2ccc3c(c2)OCO3)c2cc3c(cc2c1=O)OCO3 [2-Ethyl-4-(3,4-methylenedioxyphenyl)-6,7-methylenedioxy-1(2H) -phthalazinone] | 3 µM | – |
| O=c1nc(-c2ccc3c(c2)OCO3)c2cc3c(cc2n1CCO)OCO3 [1-[(2-Hydroxy)ethyl]-6,7-methylenedioxy-4-(3,4-methylenedioxyphenyl)quinazoline-2-one] | 1.5 µM | – |
| c1ccc(-c2nc(-c3ccc4c(c3)OCO4)c3cc4c(cc3n2)OCO4)cc1 | – | melting point: 225 to 230 °C |
| Cc1nc(-c2ccc3c(c2)OCO3)c2cc3c(cc2n1)OCO3 [6,7-Methylenedioxy-4-(3,4-methylenedioxyphenyl)-2-methylquinazoline] | 4.5 µM | – |
| COCCn1c(=O)nc(-c2ccc3c(c2)OCO3)c2cc3c(cc21)OCO3 [1-[(2-Methoxy)ethyl]-6,7-methylenedioxy-4-(3,4-methylenedioxyphenyl)quinazoline-2-one] | 13 µM | – |
| CN(C)CCCCCOc1nc(-c2ccc3c(c2)OCO3)c2cc3c(cc2n1)OCO3 [2-[(3-Dimethylaminopropyl)ethoxy]-6,7-methylenedioxy-4-(3,4-methylenedioxyphenyl)quinazoline] | 12 µM | – |
| O=c1nc(-c2ccc3c(c2)OCO3)c2cc3c(cc2[nH]1)OCO3 | – | melting point: > 300 °C |

| Compound | IC50 [1, 2] | other results |
| --- | --- | --- |
| c1cn(Cc2nc(-c3ccc4c(c3)OCO4)c3cc4c(cc3n2)OCO4)cn1 | – | melting point: 182 to 185 °C |
| c1cc2c(cc1-c1nc(CN3CCNCC3)nc3cc4c(cc13)OCO4)OCO2 [6,7-Methylenedioxy-2-(piperazin-1-yl)methyl-4-(3,4-methylenedioxyphenyl)quinazoline] | 12 µM | – |
| CC(C)n1c(=O)nc(-c2ccc3c(c2)OCCO3)c2cc3oc(=O)n(C)c3cc21 [1-Isopropyl-4-(3,4-ethylenedioxyphenyl)-8-methyl-7-oxo-oxazol[5.4-g]quinazolin-2(1H)-one] | 3.2 µM | – |
| NCCCc1nc(-c2ccc3c(c2)OCO3)c2cc3c(cc2n1)OCO3 [2-(3-aminopropyl)-6,7-methylenedioxy-4-(3,4-methylenedioxyphenyl)quinazoline] | 12 µM | – |
| CCn1c(=O)nc(-c2ccc3ccccc3c2)c2cc3c(cc21)OCO3 [1-Ethyl-6,7-methylenedioxy-4-(2-naphthyl)quinazolin-2(1H)-one] | 5 µM | – |
| [O-][n+]1c(Cn2ccnc2)nc2ccc3c(c2c1-c1ccc2c(c1)OCO2)OCO3 [2-(1-Imidazolyl)methyl-5,6-methylenedioxy-4-(3,4-methylenedioxyphenyl)quinazoline 3-oxide hydrochloride] | 6 µM | – |
| Cc1nc2cc3c(cc2c(-c2ccc4c(c2)OCO4)[n+]1[O-])OCO3 [2-Methyl-6,7-methylenedioxy-4-(3,4-methylenedioxyphenyl)quinazoline 3-oxide] | 4 µM | – |
| CN(C)Cc1nc2cc3c(cc2c(-c2ccc4c(c2)OCO4)[n+]1[O-])OCO3 [2-Dimethylaminomethyl-6,7-methylenedioxy-4-(3,4-methylenedioxyphenyl)quinazoline-3-oxide] | 10 µM | – |
| OCCOc1nc(-c2ccc3c(c2)OCO3)c2cc3c(cc2n1)OCO3 [2-[(2-Hydroxy)ethoxy]-6,7-methylenedioxy-4-(3,4-methylenedioxyphenyl)quinazoline] | 4 µM | – |
| CN(C)CCCn1c(=O)nc(-c2ccc3c(c2)OCO3)c2cc3c(cc21)OCO3 [1-(3-Dimethylaminopropyl)-6,7-methylenedioxy-4-(3,4-methlenedioxyphenyl)quinazoline-2-one] | 3 µM | – |
| O=c1nc(-c2ccccc2)c2cc3c(cc2[nH]1)OCO3 | – | melting point: 351 to 354 °C |
| [O-][n+]1c(CN2CCCC2)nc2cc3c(cc2c1-c1ccc2c(c1)OCO2)OCO3 [2-(Pyrrolidin-1-yl)methyl-6,7-methylenedioxy-4-(3,4-methylenedioxyphenyl)quinazoline-3-oxide] | 7 µM | – |
| CC(CN(C)C)On1c(=O)nc(-c2ccc3c(c2)OCO3)c2cc3c(cc21)OCO3 (centres unmarked) | – | melting point: 160 to 165 °C |
| c1cc2c(cc1-c1nc(OCC3CC3)nc3cc4c(cc13)OCO4)OCO2 | – | melting point: 175 to 182 °C |
| CC(C)n1c(=O)nc(-c2ccc3c(c2)OCO3)c2cc3c(cc21)OCCO3 [6,7-Ethylenedioxy-1-isopropyl-4-(3,4-methylenedioxyphenyl)quinazolin-2(1H)-one] | 7 µM | – |
| ClCCCc1nc(-c2ccc3c(c2)OCO3)c2cc3c(cc2n1)OCO3 [2-(3-Chloropropyl)-4-(3,4-methylenedioxyphenyl)-6,7-methylenedioxyquinazoline] | 11 µM | – |
| CCc1nc(-c2ccc3c(c2)OCO3)c2cc3c(cc2n1)OCO3 [2-Ethyl-4-(3,4-methylenedioxyphenyl)-6,7-methylenedioxyquinazoline] | 4.3 µM | – |
| OCc1nc(-c2ccc3c(c2)OCO3)c2cc3c(cc2n1)OCO3 [2-Hydroxymethyl-6,7-methylenedioxy-4-(3,4-methylenedioxyphenyl)quinazoline] | 6 µM | – |
| Cn1c(=O)nc(-c2ccccc2)c2cc3c(cc21)OCO3 | – | melting point: 253 to 255 °C |
| CC(C)n1c(=O)nc(-c2ccc3c(c2)OCO3)c2cc3oc(=O)n(Cc4ccccc4)c3cc21 [1-Isopropyl-4-(3,4-methylenedioxyphenyl)-8-benzyl-7-oxo-oxazol[5,4-g]quinazolin-2(1H)-one] | 3 µM | – |
| CCn1c(=O)nc(-c2cc3c(cc2[N+](=O)[O-])OCO3)c2cc3c(cc21)OCO3 [1-Ethyl-6,7-methylenedioxy-4-(3,4-methylenedioxy-6-nitrophenyl)quinazolin-2(1H)-one] | 4.7 µM | – |
| CC(=O)OCc1nc(-c2ccc3c(c2)OCO3)c2cc3c(cc2n1)OCO3 | – | melting point: 144 to 147 °C |
| Clc1nc(-c2ccc3c(c2)OCO3)c2cc3c(cc2n1)OCO3 [2-Chloro-4-(3,4-methylenedioxyphenyl)-6,7-methylendioxyquinazoline] | 6 µM | – |
